According to a melting point compilation (Tetko et al.; mined from patent text by program, amines drawn as free bases though some values may be those of a salt):

melting point [°C]	Compound
91 to 93	c1ccc(CN2C[C@@H]3Cc4cc5ccccc5n4C[C@@H]3C2)cc1 (relative stereo)
224 to 227	Cc1cn(-c2ccc3nnc4c(C)nc(C5CCCCC5)n4c3c2)c(C2CCCCC2)n1
104 to 105	CCOC(=O)C(=CNc1ccccc1[N+](=O)[O-])C(=O)OCC
141 to 143	CCc1ccccc1N1CCN(C(=S)Nc2nc3ccccc3nc2OC)CC1
285 to 288	COc1cccc(OC)c1-c1cc2c(ccn2C)c2c1C(=O)NC2=O
148 to 160	CNC(=O)[C@H](Cc1ccc(OC(C)C)cc1)NC(=O)[C@@H](N)CC(C)C
103 to 105	COCCn1nnc2cc3c(cc2c1=O)OCN(C1CC1)C3=O
130 to 131	CCOC(=O)N1CCc2cc(OC)c(OC)cc2C(Oc2ccc(C(F)(F)F)cc2)C1 (stereo not drawn)
182	CCOC(=O)C(=NOC(C)C)c1csc(NC(c2ccccc2)(c2ccccc2)c2ccccc2)n1
192 to 195	CC(c1oc2ccccc2c(=O)c1-c1cccc(F)c1)n1nc(-c2cc(O)ccc2Cl)c2c(N)ncnc21 (stereo not drawn)
188	CN1C(=O)N(c2cc(Cl)cc(Cl)c2)C(=O)[C@]12CN(Cc1cc(C(=O)O)cs1)C[C@H]2c1ccc(C#N)cc1 (relative stereo)
92 to 93	C=C(CCl)COc1ccc(C(=O)OC)cc1CS(=O)(=O)c1ccccc1
82 to 85	CCOC(=O)CCn1c(CC(=O)OCC)nc2c(N3CCCCC3)cccc21
64 to 65	O=C1CC2(CC=CC2)CC(=O)O1
210	O=C(Nc1ccc2nc(CN3CCCC3)ccc2c1)c1ccc(-c2ccc(F)cc2)nc1
298 to 301	COc1ccc2cc3c(c(-c4ccc(C)cc4)c2c1)CNC3=O
44 to 47	CC(Oc1ccc(Oc2ccc(C(F)(F)F)cn2)cc1)C(=O)OCCOCc1ccccc1 (stereo not drawn)
109 to 112	CCOC(=O)Cc1ccc(SCc2ccc(Cl)cc2C(=O)O)cc1
132 to 134	CC1OC(O)(Cl)CC(NC(=O)C(F)(F)F)C1(O)OC(=O)C(F)(F)F (stereo not drawn)
94 to 96	CC(C)c1nc(CCOC2=CCCCCCCCC2)n(C)c1Sc1cc(Cl)cc(Cl)c1
84 to 85	Cc1c(Cc2ccc(Cl)cc2)cccc1[N+](=O)[O-]
121 to 123	CN1CCC2(CC1)SC(c1ccc(Cl)cc1)c1ccccc12 (stereo not drawn)
98	FC(F)(F)c1cc(Cl)c(Oc2ccc3ccc(S)cc3c2)c(Cl)c1
94 to 96	CCCCCCCCCCCCCCCCCNC(=O)N(C)CC(O)C(O)C(O)C(O)CO (stereo not drawn)
80 to 82	COC(=O)c1cc(-n2c(OC)nc(C(F)(F)C(F)(F)F)cc2=O)c(F)cc1Cl

melting point [°C]	Compound
59 to 60	CCOC(=O)N1CCN(CCCCCCNc2cc(OC)cc3c(C)ccnc23)CC1
203 to 206	Nc1cccc(-c2ccc(-c3ccccc3)cc2)c1N
257 to 258	O=C(c1cccc2nc3n(c12)CCCN3c1ccc(Cl)cc1Cl)N1CC(O)C1
113 to 114	Cc1c(OCC(F)(F)F)ccnc1CSc1nc2ccccc2n1NCCCO
102	C1CSC(SSCCSSC2=NCCS2)=N1
156 to 160	CC1=C(CC(=O)N(C)O)c2cc(F)ccc2/C1=C\c1ccc(S(C)=O)cc1 (stereo not drawn)
131 to 132	O=[N+]([O-])c1ccc(CNc2ccccn2)cc1
169 to 170	CN1CCOc2cc(N)ccc2C1=O
137 to 140	COc1ccc2c(c1)[C@H](CO)OC2=O
133 to 134	O=c1n(Cc2ccccc2)nc2n1C=Cc1ccccc1C2
147 to 150	COc1ccc2cc(C3=CCC4(CCNCC4)CC3)ccc2c1
243 to 245	ON=Cc1cn2c(cnc3ccccc32)n1
33 to 35	CCC(=O)OCC=C(C)CCC=C(C)CCC=C(C)CCC=C(C)CCC=C(C)CCC=C(C)CCC=C(C)CCC=C(C)CCC=C(C)C
143 to 144	C=Cc1nc2cc(-c3ccc(C#N)cc3)ccc2o1
180 to 182	CO/N=C1\CCCC[C@@H]1NC(=O)c1ncc(O[C@@H](C)C(F)(F)F)c(-c2ccc(Cl)cc2)n1
148 to 150	C[C@H](COc1ccccc1)Nc1nc(F)nc2c1ncn2[C@@H]1O[C@H](CO)[C@@H](O)[C@H]1O
161 to 162	CC(C)(C)c1cc(CCc2ccccc2NC(=O)NCCCc2ccccc2)cc(C(C)(C)C)c1O
159 to 160	COc1cc2ncc(F)c(Cl)c2cc1OC
96 to 98	Cc1c(C)c2c(c(C)c1O)CCC(C)(CCc1ccccc1)O2 (stereo not drawn)
192 to 193	CSc1ncc2ccc(=O)n(C)c2n1
110 to 111	CCOc1ccc(S(=O)(=O)N2CCN(C)CC2)cc1C(=O)OC
94 to 97	Cn1cc2c(cc1=O)CCCC2=O
205 to 206	O=C(Nc1ccccc1)C1=C(N2CCOCC2)COC1=O
78 to 79	CC(C)(C)OC(=O)NCC12CCC1CN(Cc1ccccc1)C2 (stereo not drawn)
72 to 73	N#Cc1ncc(Cl)cc1F

melting point [°C]	Compound
296 to 297	CSc1nc2c([nH]1)N(Cc1ccc(Cl)cc1)C1NCCN1C2=O (stereo not drawn)
188 to 191	Cc1oc(-c2ccccc2)nc1CCOc1ccc(CC2SC(=O)NC2=O)c2ccccc12 (stereo not drawn)
193 to 196	CC(c1oc2ccc(F)cc2c(=O)c1-c1cccc(F)c1)n1nc(-c2cccc(O)c2)c2c(N)ncnc21 (stereo not drawn)
72 to 74	C#CCN1C(=O)COc2cc(F)c(NC(=O)C3CCCN3C(=O)OCc3ccccc3)cc21 (stereo not drawn)
220 to 225	COc1ccc(-c2cccc(C(=O)O)c2)c2c1OC(C)(C)C2
216 to 218	CC(CCC(O)C(C)(C)O)C1CCC2C3=CC=C4CC(O)CCC4(C)C3CCC21C (stereo not drawn)
135 to 137	CNCC(=O)N1c2ccccc2N(C)S(=O)(=O)c2ccccc21
180 to 182	CCOC(=O)c1nn2c(-c3ccc(OC)cc3)nnc2c2ccccc12
113 to 114	CON1C=Cc2ccccc2C1
300	CC(=O)c1[nH]c(-c2ccc(O)cc2)nc1C
165 to 166	CCOC(=O)C1=C(C)NC(C)=C(C(=O)OCC)C1c1ccccc1/C=C/C(=O)OC1CCCCC1C (stereo not drawn)
> 300	COc1cc(OC)cc(C(=O)NC(=O)Nc2ccc3c(c2)NC(=O)/C3=C\c2[nH]c(C)c(C(=O)O)c2C)c1
218 to 220	O=C(NCc1ccc(Cl)cc1)c1cnc2cc(C#CCO)ccc2c1O
106 to 109	CC(C)(C)c1cc(CCC(=O)Oc2ccccc2)ccc1O
92 to 96	CC(C)CC(C=O)NC(=O)C(Cc1c[nH]cn1)NC(=O)C(CC=Cc1ccccc1)Cc1cccc2ccccc12 (stereo not drawn)
132 to 138	CC(Oc1ccc(Oc2cnc3cc(Cl)ccc3n2)cc1F)C(=O)O (stereo not drawn)
171	Cc1cc(N)nc(CCc2nc3cc(-c4ccc(S(=O)(=O)N5CCCC5)cc4)cnc3[nH]2)c1
48 to 49.5	CCOc1ccc(Cl)c([N+](=O)[O-])c1
> 300	O=C(O)c1ccnc2[nH]c(CCc3ccccc3)cc12
208 to 209	O=c1c2ncn(C3OC(COC(c4ccccc4)(c4ccccc4)c4ccccc4)C(O)C3O)c2ncn1Cc1ccccc1 (stereo not drawn)
178 to 180	CCc1nc(OC)c(NC(=O)N2CCN(c3cc(C)cc(C)c3)CC2)cc1C(=O)Nc1cc(CO)cc(Nc2c3ccccc3nc3ccccc23)c1
117 to 118	COc1cc(CC(CO)NC(=O)c2ccccc2)cc(OC)c1 (stereo not drawn)
159 to 160	CCC(Oc1ccc(C)cc1C)C(=O)OC1CC(O)C=C2C=CC(C)C(CCC3CC(O)CC(=O)O3)C21 (mixture of isomers)
36 to 36.7	C=C(C)C(=O)OCc1ccc(OC2CCCCO2)cc1 (stereo not drawn)
90 to 92.5	CC1(OCCN(Cc2ccccc2)C(=O)C(F)(F)F)C=CC=C([N+](=O)[O-])C1NC(=O)C(F)(F)F (stereo not drawn)

melting point [°C]	Compound
177 to 179	COc1ccc2[nH]c(C(=O)C(C)(C)c3ccc(Cl)cc3)cc2c1
268 to 271	C=C1SC(=O)N(c2ccc3cc(-c4ccc(OC)c(C5(C)CCCCC5)c4)ccc3c2)C1=O
158 to 161	O=C(O)CCCCCNC(=O)c1cn2c3c(cccc13)CCC2
99 to 100	COC(=O)c1cc(N)ccc1OC(C)=O
132 to 134	COC(=O)CN(C)CCNC(=O)c1nc(Cl)c(N)nc1N
138 to 139	Cc1ccc(CC(=O)O)c(OCc2ccc(OCc3nc(-c4ccccc4)oc3C)cc2)n1
186 to 188	CN(CC(=O)OC(C)(C)C)c1nccc(-c2nc(=O)c3ccccc3s2)n1
131 to 134	N#Cc1cc2c(s1)CCCC2NC=O (stereo not drawn)
125 to 127	O=[N+]([O-])c1ccc(NN=CCCc2ccc(F)cc2)cc1
166 to 167	O=C(O)COc1cc2ccsc2c(Cl)c1Cl
194 to 197	CONC(=O)c1cnn(-c2ccccc2)c1Br
118 to 120	C[C@@H](NC(=O)Nc1ccc(C(C)(C)C)cc1)c1ccc(NS(C)(=O)=O)c(C#C[Si](C)(C)C)c1
129 to 131	Cc1nc2cccc3nc(SCCCCNS(=O)(=O)C(F)(F)F)c1n23
64 to 66.5	O=C(COC(F)(F)F)Nc1ccccc1
238 to 239	COc1ccc(C(=O)Nc2ccc(OC)cc2NC(=O)c2ccc(OC)cc2)cc1
133 to 135	O=C1CCc2c(-c3ccncc3)sc(-c3ccccc3F)c21
108 to 109	COc1cc(CC(=O)O)cc2c1NC(C(F)(F)F)CC2 (stereo not drawn)
162	CCCCc1nn2c(c1Cc1ccc(-c3ccccc3C(=O)O)cc1)CCCC2
223 to 225	O=C(c1c(O)c2ccccc2c2nc3ccccc3nc12)N1CCOCC1
172 to 175	COCCC1(C(=O)N[C@@H](Cc2ccc(NC(=O)c3cc(C#N)ccc3Cl)cc2)C(=O)OC)CCCC1
143 to 145	CN(C)Cc1cccc(CSCCNc2ncc(Cc3cccnc3)c(=O)[nH]2)c1
134 to 136	O=C(CCCN1CCN(c2cccc(Cl)c2Cl)CC1)N1CCc2ccccc21
242 to 244	Cc1ccc(C)c(Nc2ncc(C(=O)O)c(=O)[nH]2)c1
